Laboratory results as given in patent US20060069132A1, “Azolecarboxamide herbicides” (priority 2004, published 2006).

Legend:
[1] = tested on: downy bromegrass; assay: Test C postemergence herbicide test; format: in vivo, Bromus tectorum
Description: (§1) At the same time, plants selected from these crop and weed species and also winter barley (Hordeum vulgare L.), blackgrass (Alopecurus myosuroides Huds.), canarygrass (Phalaris minor Retz.), chickweed (Stellaria media (L.) Vill.), downy bromegrass (Bromus tectorum L.), green foxtail (Setaria viridis (L.) Beauv.), Italian ryegrass (Lolium multiflorum Lam.), wheat (Triticum aestivum L.), wild oat (Avenafatua L.) and windgrass (Apera spica-venti (L.) Beauv.) were treated with postemergence applications of some of the test chemicals formulated in the same manner. Plants ranged in height from 2 to 18 cm (1- to 4-leaf stage) for postemergence treatments. Plant species in the flooded paddy test consisted of rice (Oryza sativa), smallflower umbrella sedge (Cyperus difformis L.), ducksalad (Heteranthera limosa (Sw.) Willd.) and barnyardgrass (Echinochloa crus-galli (L.) Beauv.) grown to the 2-leaf stage for testing. Treated plants and controls were maintained in a greenhouse for 12 to 14 days, after which time all species were compared to controls and visually evaluated. Plant response ratings, summarized in Table C, are based on a scale of 0 to 100 where 0 is no effect and 100 is complete control. A dash (-) response means no test result.

[2] = tested on: green foxtail; assay: Test C postemergence herbicide test; format: in vivo, Setaria viridis
Description: as §1

[3] = tested on: Italian ryegrass; assay: Test C postemergence herbicide test; format: in vivo, Lolium multiflorum
Description: as §1

[4] = tested on: wheat; assay: Test C postemergence herbicide test; format: in vivo, Triticum aestivum
Description: as §1

[5] = tested on: large crabgrass; assay: Test E pre-/postemergence herbicide test; format: in vivo, Digitaria sanguinalis; conditions: Preemergence
Excerpt: (§2) Seeds of plant species selected from bipinnate beggarticks (Bidens bipinnata L.), hairy beggarticks (Bidens radiata Thuill.), bermudagrass (Cynodon dactylon (L.) Pers.), Surinam grass (Urochloa decumbens (Staph) R. D. Webster, previously named Brachiaria decumbens Stapf), large crabgrass (Digitaria sanguinalis (L.) Scop.), green foxtail (Setaria viridis (L.) P. Beauv.), goosegrass (Eleusine indica (L.) Gaertn.), johnsongrass (Sorghum halepense (L.) Pers.), kochia (Kochia scoparia (L.) Schrad.), pitted morningglory (Ipomoea lacunosa L.), purple nutsedge (Cyperus rotundus L.), common ragweed (Ambrosia elatior L.), mustard (Brassica nigra (L.) W. D. J. Koch), guineagrass (Panicum maximum Jacq.), dallisgrass (Paspalum dilatatum Poir.), barnyardgrass (Echinochloa crus-galli (L). P. Beauv.), southern sandbur (Cenchrus echinatus L.), common sowthistle (Sonchus oleraceous L.), prickly sida (Sida spinosa L.), Italian ryegrass (Lolium multiflorum Lam.), common purslane (Portulaca oleracea L.), broadleaf signalgrass (Brachiaria platyphylla (Griseb.) Nash), common groundsel (Senecio vulgaris L.), common chickweed (Stellaria media (L.) Vill/Cyr.), tropical spiderwort (Commelina benghalensis L.), annual bluegrass (Poa annua L.), downy bromegrass (Bromus tectorum L.), itchgrass (Rottboellia cochinchinensis (L.) L.f.), quackgrass (Elytrigia repens (L.) Nevski), Canada horseweed (Erigeron Canadensis L.), field bindweed (Convolvulus arvensis L.), spotted spurge (Euphorbia maculata L.), common mallow (Malva sylvestris (=s silvestris) L.), and Russian thistle (Salsola kali L. ssp. Ruthenica (Iljin) Soo) were planted and treated preemergence with test chemicals formulated in a non-phytotoxic solvent mixture which included a surfactant.
(§3) At the same time, plants selected from these weed species were treated with postemergence applications of some of the test chemicals formulated in the same manner. Plants ranged in height from 2 to 18 cm (1- to 4-leaf stage) for postemergence treatments. Treated plants and controls were maintained in a greenhouse for 12 to 14 days, after which time all species were compared to controls and visually evaluated. Plant response ratings, summarized in Table E, are based on a scale of 0 to 100 where 0 is no effect and 100 is complete control. A dash (-) response means no test result.

[6] = tested on: johnsongrass; assay: Test E pre-/postemergence herbicide test; format: in vivo, Sorghum halepense; conditions: Preemergence
Excerpt: as §2, §3

[7] = tested on: guineagrass; assay: Test E pre-/postemergence herbicide test; format: in vivo, Panicum maximum; conditions: Preemergence
Excerpt: as §2, §3

[8] = tested on: barnyardgrass; assay: Test E pre-/postemergence herbicide test; format: in vivo, Echinochloa crus-galli; conditions: Preemergence
Excerpt: as §2, §3

[9] = tested on: broadleaf signalgrass; assay: Test E pre-/postemergence herbicide test; format: in vivo, Brachiaria platyphylla; conditions: Preemergence
Excerpt: as §2, §3

[10] = tested on: downy bromegrass; assay: Test E pre-/postemergence herbicide test; format: in vivo, Bromus tectorum; conditions: Preemergence
Excerpt: as §2, §3

[11] = tested on: field bindweed; assay: Test E pre-/postemergence herbicide test; format: in vivo, Convolvulus arvensis; conditions: Preemergence
Excerpt: as §2, §3

[12] = Postemergence, 250 g ai/ha, scale 0 to 100, 0 no effect, 100 complete control
[13] = postemergence, 125 g ai/ha, scale 0 to 100
[14] = postemergence, 31 g ai/ha, scale 0 to 100
[15] = postemergence, 62 g ai/ha, scale 0 to 100
[16] = 250 g ai/ha, scale 0 (no effect) to 100 (complete control)
[17] = 500 g ai/ha, scale 0 (no effect) to 100 (complete control)
[18] = Postemergence, 500 g ai/ha, scale 0 to 100, 0 no effect, 100 complete control

Compound: CCOC(=O)c1cccc(NC(=O)c2nn(C(C)(C)CC)nc2CC)c1 [Compound 375]
- Plant response rating, Bromegrass, Downy [1, 12]: 60
- Plant response rating, Bromegrass, Downy [1, 13]: 60
- Plant response rating, Bromegrass, Downy [1, 14]: 40
- Plant response rating, Bromegrass, Downy [1, 15]: 60
- Plant response rating, Foxtail, Green [2, 12]: 65
- Plant response rating, Foxtail, Green [2, 13]: 65
- Plant response rating, Foxtail, Green [2, 15]: 50
- Plant response rating, Ryegrass, Italian [3, 13]: 65
- Plant response rating, Ryegrass, Italian [3, 15]: 65
- Plant response rating, Wheat [4, 13]: 30
- Plant response rating, Wheat [4, 15]: 25

Compound: CCc1nn(C(C)(C)C)nc1C(=O)Nc1cccc(C(=O)N(C)CC)c1 [Compound 384]
- Plant response rating, Bromegrass, Downy [1, 12]: 55
- Plant response rating, Bromegrass, Downy [1, 13]: 45
- Plant response rating, Bromegrass, Downy [1, 14]: 30
- Plant response rating, Bromegrass, Downy [1, 15]: 40
- Plant response rating, Foxtail, Green [2, 12]: 65
- Plant response rating, Foxtail, Green [2, 13]: 60
- Plant response rating, Foxtail, Green [2, 15]: 60
- Plant response rating, Ryegrass, Italian [3, 13]: 55
- Plant response rating, Ryegrass, Italian [3, 15]: 45
- Plant response rating, Wheat [4, 13]: 20
- Plant response rating, Wheat [4, 15]: 10
- Plant response rating, Crabgrass, Large ([5]; 62 g ai/ha, scale 0 to 100): 90
- Plant response rating, Crabgrass, Large ([5]; 125 g ai/ha, scale 0 to 100): 100
- Plant response rating, Crabgrass, Large [5, 16]: 100
- Plant response rating, Crabgrass, Large [5, 17]: 100
- Plant response rating, Johnsongrass ([6]; 62 g ai/ha, scale 0 to 100): 40
- Plant response rating, Johnsongrass ([6]; 125 g ai/ha, scale 0 to 100): 75
- Plant response rating, Johnsongrass [6, 16]: 80
- Plant response rating, Johnsongrass [6, 17]: 85
- Plant response rating, Guineagrass ([7]; 62 g ai/ha, scale 0 to 100): 95
- Plant response rating, Guineagrass ([7]; 125 g ai/ha, scale 0 to 100): 95
- Plant response rating, Guineagrass [7, 16]: 95
- Plant response rating, Guineagrass [7, 17]: 100
- Plant response rating, Barnyardgrass ([8]; 62 g ai/ha, scale 0 to 100): 40
- Plant response rating, Barnyardgrass ([8]; 125 g ai/ha, scale 0 to 100): 80
- Plant response rating, Barnyardgrass [8, 16]: 85
- Plant response rating, Barnyardgrass [8, 17]: 100
- Plant response rating, Signalgrass ([9]; 62 g ai/ha, scale 0 to 100): 10
- Plant response rating, Signalgrass ([9]; 125 g ai/ha, scale 0 to 100): 70
- Plant response rating, Signalgrass [9, 16]: 80
- Plant response rating, Signalgrass [9, 17]: 80
- Plant response rating, Bromegrass, Downy ([10]; 62 g ai/ha, scale 0 to 100): 20
- Plant response rating, Bromegrass, Downy ([10]; 125 g ai/ha, scale 0 to 100): 40
- Plant response rating, Bromegrass, Downy [10, 16]: 40
- Plant response rating, Bromegrass, Downy [10, 17]: 90
- Plant response rating, Bindweed, Field ([11]; 62 g ai/ha, scale 0 to 100): 80
- Plant response rating, Bindweed, Field [11, 16]: 80
- Plant response rating, Bindweed, Field [11, 17]: 95

Compound: CCNC(=O)c1ccc(F)c(NC(=O)c2c3c(nn2CC)C(C)(C)CC3)c1 [Compound 353]
- Plant response rating, Bromegrass, Downy [1, 12]: 30
- Plant response rating, Bromegrass, Downy [1, 18]: 35
- Plant response rating, Bromegrass, Downy [1, 13]: 20
- Plant response rating, Bromegrass, Downy [1, 15]: 10
- Plant response rating, Foxtail, Green [2, 12]: 20
- Plant response rating, Foxtail, Green [2, 18]: 30
- Plant response rating, Foxtail, Green [2, 13]: 20
- Plant response rating, Foxtail, Green [2, 15]: 15
- Plant response rating, Ryegrass, Italian [3, 12]: 15
- Plant response rating, Ryegrass, Italian [3, 18]: 20
- Plant response rating, Ryegrass, Italian [3, 13]: 15
- Plant response rating, Ryegrass, Italian [3, 15]: 10
- Plant response rating, Wheat [4, 12]: 30
- Plant response rating, Wheat [4, 18]: 35
- Plant response rating, Wheat [4, 13]: 15
- Plant response rating, Wheat [4, 15]: 10

Compound: CCc1nn(C(C)(C)C)nc1C(=O)Nc1cccc(C(=S)N(C)C)c1 [Compound 395]
- Plant response rating, Crabgrass, Large ([5]; 62 g ai/ha, scale 0 to 100): 80
- Plant response rating, Crabgrass, Large ([5]; 125 g ai/ha, scale 0 to 100): 100
- Plant response rating, Crabgrass, Large [5, 16]: 100
- Plant response rating, Crabgrass, Large [5, 17]: 100
- Plant response rating, Johnsongrass ([6]; 62 g ai/ha, scale 0 to 100): 30
- Plant response rating, Johnsongrass ([6]; 125 g ai/ha, scale 0 to 100): 80
- Plant response rating, Johnsongrass [6, 16]: 90
- Plant response rating, Johnsongrass [6, 17]: 90
- Plant response rating, Guineagrass ([7]; 62 g ai/ha, scale 0 to 100): 80
- Plant response rating, Guineagrass ([7]; 125 g ai/ha, scale 0 to 100): 100
- Plant response rating, Guineagrass [7, 16]: 100
- Plant response rating, Guineagrass [7, 17]: 100
- Plant response rating, Barnyardgrass ([8]; 62 g ai/ha, scale 0 to 100): 50
- Plant response rating, Barnyardgrass ([8]; 125 g ai/ha, scale 0 to 100): 60
- Plant response rating, Barnyardgrass [8, 16]: 95
- Plant response rating, Barnyardgrass [8, 17]: 95
- Plant response rating, Signalgrass ([9]; 62 g ai/ha, scale 0 to 100): 10
- Plant response rating, Signalgrass ([9]; 125 g ai/ha, scale 0 to 100): 75
- Plant response rating, Signalgrass [9, 16]: 85
- Plant response rating, Signalgrass [9, 17]: 90
- Plant response rating, Bromegrass, Downy ([10]; 62 g ai/ha, scale 0 to 100): 40
- Plant response rating, Bromegrass, Downy ([10]; 125 g ai/ha, scale 0 to 100): 40
- Plant response rating, Bromegrass, Downy [10, 16]: 95
- Plant response rating, Bromegrass, Downy [10, 17]: 95
- Plant response rating, Bindweed, Field ([11]; 62 g ai/ha, scale 0 to 100): 10
- Plant response rating, Bindweed, Field ([11]; 125 g ai/ha, scale 0 to 100): 40
- Plant response rating, Bindweed, Field [11, 16]: 60
- Plant response rating, Bindweed, Field [11, 17]: 70
